Measured values published in patent publication US7589080B2, “β-cyclodextrin compositions, and use to prevent transmission of sexually transmitted diseases” (priority 2000, dated 2009).
Marks after values point to notes of the source that are not given here.

What was measured:
[1] = test system: CD4+ HIV-susceptible target cells; assay: Cell viability, growth and function after 2-OH-βCD treatment; assay type: cell-based
Excerpt: The role of lipid rafts in the HIV-1 fusion process was examined by treating CD4+HIV-susceptible target cells with 2-OH-βCD to deplete membrane cholesterol and disperse lipid rafts.
Loss of CXCR function in regulating LFA-1 could also explain the lower binding of HIV-1 to βCD-treated cells observed previously (Liao et al., supra, 2000; Orentas and Hildreth, supra, 1993). […] The ability of βCD treatment of cells to affect control of LFA-1 function by CXCR4 also was examined. Jurkat cells were treated with 2-OH-βCD or medium alone, then were added to the wells of culture plates coated with soluble recombinant ICAM-Ig. SDF-1, a CXCR4-specific chemokine that triggers LFA-1 function, was added to trigger binding of LFA-1 to ICAM-1. Control cells responded to SDF-1 and, as expected, bound very well to ICAM-Ig. […] CXCR4-specific gp120 triggers the same responses through CXCR4 as SDF-1 (Iyengar et al., J. Immunol. 162:6263-6267, 1999).
(§1) βCD treatment blocks HIV-1 virus infection. HIV-1 can spread in cell cultures without necessarily exerting cytopathic effects. […] To test the effects of cholesterol depletion on HIV-1 infection of primary T cells by free virus, PHA blasts were treated with 10 mM 2-OH-βCD or medium alone, then were exposed to HIV-1 for 2 hr before washing to remove input virus. Viability and growth of the PHA blasts was not affected by treatment with the βCD under the conditions used. P24 release was measured after an addition 6 days in culture. Two primary strains of HIV-1, 97.099 and 97.534, M-tropic (R5) and dual-tropic (X4R5), respectively, were tested.
The effects of βCD treatment on HIV infectivity were measured in a sensitive single-cycle infection assay based on a cell line transfected with an LTR-luciferase cassette. […] Quantitative measurements of single round infection are obtained with this assay system (Roos et al., Virology 273:307-315, 2000, which is incorporated herein by reference). Viability of LuSIV cells as determined by trypan blue exclusion and proliferation was not affected by 2-OH-βCD treatment. βCD treatment of LuSIV cells reduced HIV infection by almost 100%, and the effects were readily seen at all viral input levels.

[2] = test system: HIV-1 primary strain 97.099, M-tropic (R5); assay: Primary virus infection assay, isolate 97.099; assay type: cell-based; settings: PHA blasts treated with 10 mM; p24 after 6 days
Procedure: Peripheral blood mononuclear cells (PBMCS) were isolated by Ficoll-Hypaque centrifugation from buffy coats obtained from the Johns Hopkins Hemapheresis Center. Cells were stimulated for 3 days with 3 Tg/ml PHA, washed with iRPMI, and treated with 10 mM 2-OH-βCD in cRPMI for 1 hr. Cells were then washed twice with iRPMI and resuspended in cRPMI (1×10^6/ml) supplemented with 50 U/ml IL-2 and containing primary HIV-1 strains at 20 ng/ml p24. Cells were incubated with virus for 24 hr at 37° C. before washing twice with iRPMI. Cells were then resuspended in cRPMI supplemented with 50 U/ml IL-2 and cultured for 6 days at 37° C. Supernatants were collected and p24 was quantitated by standard p24 ELISA.
as §1

[3] = test system: LFA-1 binding to ICAM-1 triggered through CXCR4; assay: SDF-1α-induced cell adhesion assay; assay type: cell-based; settings: Jurkat cells treated with 20 mM
Procedure: Cell adhesion assays were carried out essentially as previously described (Liao et al., supra, 2000). The wells of 96 well plates were coated with recombinant ICAM-Ig and blocked as described. Jurkat cells were labeled with horseradish peroxidase (HRP) and treated with either 20 mM 2-OH-βCD or medium alone as described above. The cells were then washed and resuspended in cRPMI at a density of 2×10^6/ml. One hundred Tl of cells were added to the wells along with cRPMI alone or medium containing 10 ng/ml of SDF-1α. The wells were incubated at 37° C. for various times before washing to remove unbound cells. Bound cells were lysed and HRP measured as described previously. A standard curve was generated by from known numbers of labeled cells lysed and quantitated by measuring HRP.
Loss of CXCR function in regulating LFA-1 could also explain the lower binding of HIV-1 to βCD-treated cells observed previously (Liao et al., supra, 2000; Orentas and Hildreth, supra, 1993). […] The ability of βCD treatment of cells to affect control of LFA-1 function by CXCR4 also was examined. Jurkat cells were treated with 2-OH-βCD or medium alone, then were added to the wells of culture plates coated with soluble recombinant ICAM-Ig. SDF-1, a CXCR4-specific chemokine that triggers LFA-1 function, was added to trigger binding of LFA-1 to ICAM-1. […]

HIV-1Ba-L-infected HuPBL = assay: Vaginal transmission of cell-associated HIV-1 in HuPBL-SCID mice; assay type: in vivo; settings: for Number of mice from which HIV-1 was cultured/Number of mice exposed to HIV-1: P < 0.01
Procedure: The mice were treated subcutaneously with 2.5 mg progestin (Depo-Provera® progestin; Upjohn Pharmaceuticals; Kalamazoo Mich.), on the same day as administration of 5×10^7 unstimulated HuPBMC intraperitoneally in 1 ml PBS. Seven days following progestin treatment and reconstitution of the SCID mice with HuPBMC, the mice were anesthetized and administered pelleted, cell-free HIV-1Ba-L (up to […]), supernatant fluids from HIV-1Ba-L-infected HuPBL, HIV-1Ba-L-infected HuPBL, or HIV-1MN-infected HuPBL (1×10^6/mouse). In the βCD experiments, the mice received 2-OH-βCD (3% w/v in PBS) 5 min prior to receiving 1×10^6 HIV-1Ba-L-infected HuPBL, 1×10^6 HIV-1Ba-L-infected HuPBL pre-incubated with 3% 2-OH-βCD, or 1×10^6 HIV-1Ba-L-infected HuPBL suspended in PBS.
Mice remained anesthetized for 5 minutes following intravaginal inoculation by pipette. Extreme care was taken to avoid causing trauma to vaginal tissues. Two weeks later the mice were euthanized and peritoneal cells were recovered by lavage with cold PBS. The cells recovered by lavage (of both murine and human origin) were assayed by DNA-PCR for human β-globin to determine the presence of human cells from the peritoneum and for HIV-1 infection by co-culture with PHA-stimulated HuPBMC.
The ability of a βCD to inhibit vaginal transmission of cell-associated HIV-1 was examined. Reconstituted HuPBL-SCID mice were challenged intravaginally with 1×10^6 PBMC infected with HIVBa-L after receiving progesterone subcutaneously and HuPBMC intraperitoneally. For two of the experimental groups the HIV-1 infected PBMC were pre-incubated in either 20 Tl PBS or 2-OH-βCD (3% w/v) before the mixture was inoculated intravaginally.

## 2-hydroxypropyl-β-cyclodextrin [2-OH-βCD]
[1]; 10 mM
  Viability and growth of the PHA blasts: not affected
[1]; 10 to 20 mM for 1 hr at 37° C
  Cell viability by Trypan Blue exclusion: without any loss in cell viability
[1]; Jurkat cells, adhesion assay
  Cell viability: no effect on cell viability
[1]; LuSIV cells
  Viability of LuSIV cells by trypan blue exclusion and proliferation: not affected
[1]; placed back into culture in cholesterol-containing medium
  Cell growth after treatment: continued to grow normally
[1]; treated Jurkat cells
  Ca2+ flux responses to anti-CD3 MAb: still showed Ca^2+ flux responses
[2]
  Infection of PHA blasts by HIV isolate 97.099 (p24 release): completely inhibited
[3]
  Binding of Jurkat cells to ICAM-Ig after exposure to SDF-1: no binding to ICAM-Ig
HIV-1Ba-L-infected HuPBL; 3% w/v intravaginally 5 min prior to infected HuPBMC challenge
  Number of mice from which HIV-1 was cultured/Number of mice exposed to HIV-1: 1/11*
HIV-1Ba-L-infected HuPBL; 3% w/v premixed with HIV-infected HuPBMC, intravaginal
  Number of mice from which HIV-1 was cultured/Number of mice exposed to HIV-1: 2/16*
HIV-1Ba-L-infected HuPBL; 3% w/v, even when administered prior to infected PBMC
  Cell-associated HIV-1 transmission by the vaginal route: significantly inhibited
